Laboratory results as given in patent publication US20250255876A1, “COMPOSITIONS AND METHODS FOR CANCER TREATMENT” (ARIEL SCIENTIFIC INNOVATIONS LTD., priority 2021, published 2025).

Key:
Assay type in all cases: cell-based
[1] = test system: U2OS cells; assay: Colony survival assay, U2OS cells; details: varying cisplatin, 48 hours
Procedure: (§1) H1975 cells were plated in 24-well plates at 50,000 cells/well (for 50 µM inhibitor treatment) or 20,000 cells/well (for […] inhibitor treatment). U2OS and A549 cells were plated in 24-well plates at 5000 cells/well. The next day, cells were treated with varying concentrations of cisplatin, either with or without added inhibitor compound. After 48 hours of cisplatin+compound treatment, the cells were washed 3 times with PBS×1 and fresh media applied. After 4 days of recovery, the cells were stained with methylene blue and imaged using a Nikon SMZ25 stereomicroscope. The images were analyzed using the ImageJ (National Institutes of Health) area measurement tool to quantify total colony size in each well.

[2] = test system: A549 cells; assay: Colony survival assay, A549 cells; details: A549, 5 μM cisplatin
Procedure: as §1
(§2) Cells were plated in 24-well plates at 50,000 cells/well (H1975 line) or 10,000 cells/well (A549 line). The next day, cells were treated with varying concentrations of cisplatin ([…]), with or without 50 μM compound. For the untreated control wells containing only cisplatin, DMSO was applied in place of the compound. After 48 hours of cisplatin+compound treatment, the cells were washed 3 times with PBS and fresh media was applied. After 4 days of recovery, the cells were stained with methylene blue and imaged using a Nikon SMZ25 stereomicroscope. The images were analyzed using the ImageJ (National Institutes of Health) area measurement tool to quantify total colony size in each well.
(§3) In order to assess the ability of the selected compounds to sensitize cells during cisplatin treatment, the inventors established a colony survival assay comparing the viability of cells treated with cisplatin alone or with combined treatment of cisplatin and 50 μM compound. For the compound screen, we used two lung cancer cell lines: human non-small lung carcinoma H1975 cells, and epithelial lung adenocarcinoma A549 cells. Out of ten compounds tested, compounds c #2 and c #3 were identified with the most significant sensitization effect and were chosen for future characterization. […] Survival rate was reduced from 90% in 5 μM cisplatin treatment to 50% survival in the combined treatment (FIGS. 11A-B). H1975 cells presented similar behavior following doxorubicin treatment (FIG. 11C). IC50 was calculated using linear regression, presenting a clear reduction of cisplatin's IC50 in all treatments.

[3] = test system: H1975 cells; assay: Colony survival assay, H1975 cells; details: H1975, 5 μM cisplatin
Procedure: as §1, §2, §3

| SMILES | cell survival with cisplatin plus inhibitor [1] | survival rate, cisplatin alone [2] [%] | survival rate, cisplatin alone [3] [%] |
| --- | --- | --- | --- |
| CCCC(=O)Nc1cccc(C(=O)Nc2nnc(COC)s2)c1 [Compound 9] | no activity |  |  |
| N.N.[Cl][Pt][Cl] [cisplatin, cis-diamminedichloroplatinum(II), reference compound] |  | 90 | 90 |
